What all share (assay type): biochemical, Rhynchophorus ferrugineus
Assay [1] deals with elastase-like proteinase of R. ferrugineus midgut. As to the kind of experiment: Elastase-like serine proteinase specific activity assay (SAAPLpNA) in 4th instar midgut homogenate. Particulars: for IC50 against elastase: in vitro, midgut of 4th instar larvae; for Specific activity, Elastase: control 8.23 ± 0.02. As to the method: (§1) Serine proteinase specific activities were assayed, as described by Olga et al. with modifications, using a rapid microplate assay with synthetic substrates in 150 µL reaction mixtures containing a serine protease assay buffer (100 mM Tris-HCl, pH 8.1). Na-benzoyl-L-arginine ρ-nitroanilide (BAρNA) was evaluated for trypsin-like proteinases, N-succinyl-ala-alapro-leucine ρ-nitroanilide (SAAPLρNA) for elastase-like proteinases, and N-succinyl-ala-ala-pro-phenylalanine ρ-nitroanilide (SAAPFρNA) for chymotrypsin-like proteinases.
(§2) The 4th instar midguts were homogenized with the assay buffer. The homogenates of midguts were centrifuged at 8000× g for 30 min using Sigma 3K 30 rotors No. 12158 (Sigma laboratories centrifuge 3K30). Enzyme (10 µL) was added to each plate well (containing 40 µL of buffers) for the assays chymotrypsin-, trypsin-, and elastase-like proteinases. Stock substrates of BAρNA (100 mg/mL in DMSO), SAAPFρNA (100 mg/mL in DMF), and SAAPLρNA (100 mg/mL in DMF) were diluted to 1.0 mg/mL with an assay buffer. The total volume of the substrate was 50 µL. The reaction mixture was immediately incubated at 37 °C for 15 min and then stopped with 50 µL 30% acetic acid. Nitroaniline was measured at 405 nm using an ELISA plate reader. An assay mixture with a denaturation enzyme instead of a live enzyme was used as the blank well. Specific proteinase activities were expressed in OD/min mg protein in triplicate (for three substrates).
(§3) Specific protease inhibitors were added to the reactions of proteolytic activity determination assays, and the inhibitors were: PMSF, a general serine proteinase inhibitor; TLCK, a trypsin-like serine proteinase inhibitor; TPCK, a chymotrypsin-like serine proteinase inhibitor; an iodoacetic acid-like cysteine proteinase inhibitor; an EDTA-like metalloproteinase inhibitor; and leupeptin, a general proteinase inhibitor. The 4th midgut larval homogenates of a lab strain were prepared as described above in the assay for enzyme activity determination. The inhibition assay was carried out on a microplate assay as described above. A series of inhibitor concentrations was prepared in order to establish the maximum inhibition by each inhibitor. The leupeptin (0.01, 0.05, 0.1, and 1.0 mM), PMSF (0.1, 1.0, 10, and 50 mM), TLCK and TPCK (0.01, 0.05, 0.1, 1, 50, and 100 mM), EDTA (0.1, 1, 10, 50, and 100 mM), and iodoacetic acid concentrations (0.01, 0.05, 0.1, and 1 mM) were dissolved in the assay buffers.
(§4) To identify the proteases present in the R. ferrugineus 4th midgut larval instar homogenate preparations, different mechanistic class inhibitors were tested. In all protease types, enzyme samples of 10 µL and inhibitors or extracts from the cell suspension after 40 days or pure compounds (thymol, p-cymene, γ-terpinene, β-caryophyllene, linalool, estragole, β-terpineol, ocimene, 1,8-cineole, germacrene D, and eugenol) (1, 10, 50, 100, 500, 1000, and 5000 mg/L) were pre-incubated for 10 min before adding the substrate. An assay mixture without inhibitors was used as control. Absorbance was measured using an ELISA plate reader at different nm according to the type of enzymes. Percent activity of the control for each inhibitor was calculated to each enzyme.

Assay [2] concerns the target trypsin-like serine proteinase of R. ferrugineus midgut. As to the kind of experiment: Trypsin-like serine proteinase specific activity assay (BApNA) in 4th instar midgut homogenate. The settings on record: for IC50 against trypsin-like serine proteinase: in vitro, midgut of 4th instar larvae; for Specific activity, Trypsin: control 4.10 ± 0.11. The method, then: as §1, §2, §3, §4

Assay [3] has as its system total proteases of R. ferrugineus midgut. As to the kind of experiment: Total proteolytic enzyme activity (azocasein) in 4th instar larval midgut homogenate. The settings on record: for IC50 against total proteases: in vitro, midgut of 4th instar larvae; for Specific activity, Total Proteases: control 25.83 ± 0.45. The method, then: Protein determination was carried out according to the Lowry method. Total proteolytic enzyme activity using azocasein was assessed in the 4th midgut instars larvae homogenate of R. ferrugineus according to Olga et al., [42] with modifications. The 4th midgut larvae homogenates of lab strain (10 larvae) were pulled out gently, excised, and washed using a saline solution (0.9% (w/v) NaCl) repeatedly and then homogenized using 500 µL of an assay buffer. The midgut instar was homogenized in 500 µL of a protease assay buffer [50 mM HEPS (N-2-hydroxyelthyl piperazin-N′-2-ehtanesulphonic acid), pH 8.0, 5 mM dithiothreitol (DTT) and 0.1% (v/v) Triton X-100]. The reserve homogenates that were obtained from a previous step were centrifuged at 5000× g for 30 min using a Sigma 3k30 cooling centrifuge. The supernatants were used for estimation of the total proteolytic enzyme activity and protein concentration. Ten microliters of supernatant per assay was incubated in a total volume of 60 µL of assay buffer (pH 8) for 20 min at 37 °C before the addition of 200 µL of azocasien (2%, w/v in an assay buffer).
In all cases, enzyme samples of 10 μL, hydro distillate extract from the cell suspension after 40 days, and pure compounds (thymol, estragole, p-cymene, γ-terpinene, linalool, β-terpineol, ocimene, eugenol, 1,8-cineole, β-Caryophyllene, and germacrene D) (50, 100, 500, 1000, and 5000 mg/L) were pre-incubated together for 10 min. Substrate was then added to start the reaction (20 min for Leupeptin). The reaction lasted for 180 min at 37 °C and was then stopped using 300 µL of cold 10% (v/v) trichloroacetic acid (TCA). The reaction mixture was centrifuged at 5000× g for 20 min using the Sigma 3k30 cooling centrifuge. Ten microliters of NaOH (10 N) was added to the supernatant, and absorbency at 450 nm was measured using an ELISA plate reader. An assay mixture without an enzyme was used as a blank, the specific activity of total proteolytic enzymes was calculated as OD450. mg^−1·protein^−1·h^−1, and a blank sample was determined without an enzyme solution.
as §3, §4

The subject of assay [4] is cysteine proteinase of R. ferrugineus midgut. Kind of assay: Cysteine proteinase specific activity assay (Z-Phe-Arg-MNA) in 4th instar midgut homogenate. Particulars: for Specific activity, Cysteine Protease: control 0.59 ± 0.05. As to the method: as §3, §4
The subject of assay [5] is chymotrypsin-like serine proteinase of R. ferrugineus midgut. Kind of assay: Chymotrypsin-like serine proteinase specific activity assay (SAAPFpNA) in 4th instar midgut homogenate. Particulars: for Specific activity, Chymotrypsin: control 7.35 ± 0.02. As to the method: as §1, §2, §3, §4

Here are results for twelve compounds from paper PMC8147177, “Bio-Insecticide of Thymus vulgaris and Ocimum basilicum Extract from Cell Suspensions and Their Inhibitory Effect against Serine, Cysteine, and Metalloproteinases of the Red Palm Weevil (Rhynchophorus ferrugineus)” (Insects, 2021).

In brackets after ≈: the same amount, converted by molar mass.

As for `CC12CCC(CC1)C(C)(C)O2` [1,8-cineole], in assay [1], the IC50 against elastase is reported as 116 µg/mL (≈ 752 µM). The “IC50 against trypsin-like serine proteinase” value in assay [2] stood at 71.7 µg/mL (≈ 465 µM). In addition, the “IC50 against total proteases” value in assay [3] is recorded as 92.1 µg/mL (≈ 597 µM).

Regarding `O=C(O)CI` [Iodoacetic acid, iodoacetic acid], the “Inhibition of midgut instar proteases (in words)” value in assay [4] (cysteine protease inhibitor) was “significantly inhibited”. Besides, the “Specific activity, Cysteine Protease” value in assay [4] (inhibitor 0.01 mM) was determined as 0.28 ± 0.04 OD/mg protein min; in assay [4] (inhibitor 0.05 mM), 0.24 ± 0.05 OD/mg protein min; in assay [4] (inhibitor 0.1 mM), 0.19 ± 0.04 OD/mg protein min; in assay [4] (inhibitor 1 mM) it was 0.16 ± 0.05 OD/mg protein min.

Turning to `CC(=O)N[C@@H](CC(C)C)C(=O)N[C@@H](CC(C)C)C(=O)N[C@H](C=O)CCCNC(=N)N` [Leupeptin, leupeptin], the “Specific activity, Total Proteases” value in assay [3] (inhibitor 0.01 mM) is recorded as 0.12 ± 0.05 OD/mg protein min; in assay [3] (inhibitor 0.05 mM), 0.08 ± 0.05 OD/mg protein min; in assay [3] (inhibitor 0.1 mM), 0.07 ± 0.05 OD/mg protein min; in assay [3] (inhibitor 1 mM) it was 0.01 ± 0.05 OD/mg protein min.

On to `O=S(=O)(F)Cc1ccccc1` [PMSF, phenymethanesulfonyl fluoride], for which the “Specific activity, Elastase” value in assay [1] (inhibitor 0.1 mM) was 6.46 ± 0.01 OD/mg protein min; in assay [1] (inhibitor 1 mM), 5.26 ± 0.03 OD/mg protein min; in assay [1] (inhibitor 10 mM), 4.18 ± 0.03 OD/mg protein min; in assay [1] (inhibitor 50 mM) it was 3.98 ± 0.0 OD/mg protein min. In addition, the “Inhibition of midgut proteases (in words)” value in assay [3] (purified proteases from midgut 4th larval instars) is on record as “strongly inhibited”.

Take `Cc1ccc(S(=O)(=O)N[C@@H](CCCCN)C(=O)CCl)cc1` [TLCK, N,p-tosyl-L-lysine chloromethyl ketone]: the “Specific activity, Trypsin” value in assay [2] (inhibitor 0.01 mM) was 3.90 ± 0.11 OD/mg protein min; in assay [2] (inhibitor 0.05 mM) it was 3.82 ± 0.1 OD/mg protein min; in assay [2] (inhibitor 0.1 mM) it was 3.57 ± 0.1 OD/mg protein min; in assay [2] (inhibitor 1 mM) it was 3.41 ± 0.09 OD/mg protein min; in assay [2] (inhibitor 10 mM), 3.08 ± 0.1 OD/mg protein min; in assay [2] (inhibitor 50 mM), 2.84 ± 0.09 OD/mg protein min. In addition, in assay [2] (inhibitor 100 mM), the “Specific activity, Trypsin” value worked out at 2.12 ± 0.1 OD/mg protein min. Also, the “Inhibition of midgut instar proteases (in words)” value in assay [2] (trypsin-like serine proteinase inhibitor) is on record as “significantly inhibited”.

In the case of `Cc1ccc(S(=O)(=O)N[C@@H](Cc2ccccc2)C(=O)CCl)cc1` [TPCK, N,alpha-tosyl-L-phenylalanine chloromethyl ketone], the “Inhibition of midgut instar proteases (in words)” value in assay [5] (chymotrypsin-like serine proteinase inhibitor) is given as “significantly inhibited”. Moreover, the “Specific activity, Chymotrypsin” value in assay [5] (inhibitor 0.01 mM) amounted to 6.97 ± 0.03 OD/mg protein min; in assay [5] (inhibitor 0.05 mM), 6.40 ± 0.02 OD/mg protein min; in assay [5] (inhibitor 0.1 mM) it was 6.18 ± 0.02 OD/mg protein min; in assay [5] (inhibitor 1 mM), 5.28 ± 0.02 OD/mg protein min; in assay [5] (inhibitor 10 mM) it was 4.87 ± 0.02 OD/mg protein min; in assay [5] (inhibitor 50 mM), 3.64 ± 0.03 OD/mg protein min. The “Specific activity, Chymotrypsin” value in assay [5] (inhibitor 100 mM) amounted to 2.02 ± 0.02 OD/mg protein min.

On to `C=CCc1ccc(O)c(OC)c1` [eugenol], for which, in assay [2], the “IC50 against trypsin-like serine proteinase” value was found to be 74.1 µg/mL (≈ 451 µM). Further, the “IC50 against total proteases” value in assay [3] is reported as 99.7 µg/mL (≈ 607 µM).

`C=CC(C)(O)CCC=C(C)C` (stereo not shown) [linalool] registered an IC50 against elastase in assay [1] of 109.1 µg/mL (≈ 707 µM). In addition, the “IC50 against total proteases” value in assay [3] is reported as 197 µg/mL (≈ 1280 µM).

Take `Cc1ccc(C(C)C)cc1` [p-cymene]: the IC50 against elastase in assay [1] is on record as 169 µg/mL (≈ 1260 µM). Moreover, the “IC50 against trypsin-like serine proteinase” value in assay [2] turned out to be 98.4 µg/mL (≈ 733 µM). Further, the “IC50 against total proteases” value in assay [3] is listed as 121.8 µg/mL (≈ 907 µM).

As to `Cc1ccc(C(C)C)c(O)c1` [thymol], the IC50 against elastase in assay [1] is listed as 195 µg/mL (≈ 1300 µM). Further, the “IC50 against total proteases” value in assay [3] is 189.7 µg/mL (≈ 1260 µM).

Regarding `C=C(C)C1CCC(C)(O)CC1` (stereo not drawn) [β-terpineol], the “IC50 against total proteases” value in assay [3] is reported as 214 µg/mL (≈ 1390 µM).

`CC1=CCC(C(C)C)=CC1` [γ-terpinene] came in with an IC50 against elastase in assay [1] of 163 µg/mL (≈ 1200 µM). Further, the “IC50 against trypsin-like serine proteinase” value in assay [2] was 105.7 µg/mL (≈ 776 µM). Besides, the “IC50 against total proteases” value in assay [3] stood at 137.3 µg/mL (≈ 1010 µM).
